The results in this text go back to patent US20080286235A1, “Antimicrobials and related methods” (priority 2006, published 2008).

≈ marks a conversion by molar mass, not a printed value.

Data set [1] is described as follows: in vitro. Particulars: mouse.
Data set [2] concerns C3H/10T1/2 mouse embryo fibroblasts. Particulars: for Highest Non-Cytotoxic Concentration: mouse; for LC50 value (reduces the plating efficiency to 50% of control cells) / CC50: 10T1/2 cells; for CC50: read-out: LC50 value.
The test system of data set [3] is ringworm. Put plainly: Cat ringworm treatment. It is filed as in vivo, kittens. Particulars: Solution A 1:16 topically three times daily for three days.

Turning to `CC(=O)Nc1ccc(O)cc1` [Acetaminophen], the CC50 in data set [1] was found to be 500 µg/mL (≈ 3310 µM). Also, in data set [2], the “Highest Non-Cytotoxic Concentration” value turned out to be 0.05 mg/mL.
Regarding `CC(=O)Oc1ccccc1C(=O)O` [Aspirin], the “Highest Non-Cytotoxic Concentration” value in data set [2] was found to be 0.25 mg/mL.
Consider `OC1c2cc3ccc4cccc5ccc(c2C2OC2C1O)c3c45` (stereo not drawn) [BaP-anti-diol epoxide], for which, in data set [2], the “LC50 value (reduces the plating efficiency to 50% of control cells)” value is 0.0755 µg/mL and the CC50 is 0.25 µM.
For `COC(=O)Nc1nc2cc(C(=O)c3ccc(F)cc3)ccc2[nH]1` [Flubendazole], the CC50 in data set [1] worked out at 0.15 µg/mL (≈ 0.479 µM).
Turning to `COC1=CC(=O)C[C@@H](C)[C@]12Oc1c(Cl)c(OC)cc(OC)c1C2=O` [Griseofulvin], the “outcome of ringworm treatment” value in data set [3] is recorded as “no success”.
For the compound `CC(=O)ON(C(C)=O)c1ccc2c(c1)Cc1ccccc1-2` [N-acetoxy-acetyl aminofluorene], in data set [2], the “LC50 value (reduces the plating efficiency to 50% of control cells)” value was 3.99 µg/mL and the CC50 was 15 µM.
In turn, `C[C@@H]1O[C@@H](O[C@H]2C[C@@H](O)[C@]3(CO)[C@H]4[C@H](O)C[C@]5(C)[C@@H](C6=CC(=O)OC6)CC[C@]5(O)[C@@H]4CC[C@]3(O)C2)[C@H](O)[C@H](O)[C@H]1O` [Ouabain] showed a CC50 in data set [1] of 500 µg/mL (≈ 855 µM).
In data set [1], `CCOc1ccc(NC(C)=O)cc1` [Phenacetin] displayed a CC50 of 1000 µg/mL (≈ 5580 µM). Besides, the “Highest Non-Cytotoxic Concentration” value in data set [2] is 0.18 mg/mL.
